According to the supplement of paper PMC10307832:

Columns and labels:
Test in all cases: relative viability (nuclei count vs DMSO), 5 days (fraction); higher = more cells survive
Tosedostat = compound: CC(C)C[C@@H](C(=O)N[C@H](C(=O)OC1CCCC1)c1ccccc1)[C@H](O)C(=O)NO [Tosedostat]
Summary of the method: (§1)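 On vehicle-anchored 1536-well plates, lung cancer cell lines held overnight at 37 °C were pinned with five library-drug doses (not always all listed) spaced by √10. With no medium change over 5 days, they were then fixed, permeabilised and Hoechst-stained in one step and imaged at 4×. MetaXpress counted nuclei, and viability is the median across plates of treated-well over vehicle-well nuclei. Acceptance needed control CV below 25% and at least one doubling.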

[1] = compound: CC1=NN=C(O1)C2=NN=C(C=C2)N3CCC(CC3)OC4=C(C=CC(=C4)F)Cl
Summary of the method: as §1

Tosedostat + Luminespib = compound: CC(C)C[C@@H](C(=O)N[C@H](C(=O)OC1CCCC1)c1ccccc1)[C@H](O)C(=O)NO [Tosedostat] + CCNC(=O)c1noc(-c2cc(C(C)C)c(O)cc2O)c1-c1ccc(CN2CCOCC2)cc1 [Luminespib] (partner 0.01 µM)
Summary of the method: (§2)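 Cells from lung cancer lines were seeded into 1536-well plates and, one day later, dosed by pin tool. Treatments were either a single drug or a fixed dose of an anchor drug with five library-drug doses (not always all listed) in √10 steps. After 5 days, nuclei were stained in a one-step fixation (final 0.05% Triton X-100, 1% formaldehyde, 1 ug/ml Hoechst) and counted on 4× images, and relative viability is the treated-to-vehicle nuclei ratio, as the median of duplicate plates.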

Tosedostat + Foretinib = compound: CC(C)C[C@@H](C(=O)N[C@H](C(=O)OC1CCCC1)c1ccccc1)[C@H](O)C(=O)NO [Tosedostat] + COc1cc2c(Oc3ccc(NC(=O)C4(C(=O)Nc5ccc(F)cc5)CC4)cc3F)ccnc2cc1OCCCN1CCOCC1 [Foretinib] (partner 0.25 µM)
Summary of the method: as §2

Tosedostat + OSI-027 = compound: CC(C)C[C@@H](C(=O)N[C@H](C(=O)OC1CCCC1)c1ccccc1)[C@H](O)C(=O)NO [Tosedostat] + COc1cccc2cc(-c3nc([C@H]4CC[C@H](C(=O)O)CC4)n4ncnc(N)c34)[nH]c12 [OSI-027] (partner 0.5 µM)
Summary of the method: as §2

Tosedostat + Tozasertib = compound: CC(C)C[C@@H](C(=O)N[C@H](C(=O)OC1CCCC1)c1ccccc1)[C@H](O)C(=O)NO [Tosedostat] + Cc1cc(Nc2cc(N3CCN(C)CC3)nc(Sc3ccc(NC(=O)C4CC4)cc3)n2)n[nH]1 [Tozasertib] (partner 0.1 µM)
Summary of the method: as §2

Tosedostat + Dasatinib = compound: CC(C)C[C@@H](C(=O)N[C@H](C(=O)OC1CCCC1)c1ccccc1)[C@H](O)C(=O)NO [Tosedostat] + Cc1nc(Nc2ncc(C(=O)Nc3c(C)cccc3Cl)s2)cc(N2CCN(CCO)CC2)n1 [Dasatinib] (partner 0.075 µM)
Summary of the method: as §2

Tosedostat + Phenformin = compound: CC(C)C[C@@H](C(=O)N[C@H](C(=O)OC1CCCC1)c1ccccc1)[C@H](O)C(=O)NO [Tosedostat] + N=C(N)NC(=N)NCCc1ccccc1 [Phenformin] (partner 250 µM)
Summary of the method: as §2

[2] = compound: CC1=NN=C(O1)C2=NN=C(C=C2)N3CCC(CC3)OC4=C(C=CC(=C4)F)Cl + CCNC(=O)c1noc(-c2cc(C(C)C)c(O)cc2O)c1-c1ccc(CN2CCOCC2)cc1 [Luminespib] (partner 0.01 µM)
Summary of the method: as §2

[3] = compound: CC1=NN=C(O1)C2=NN=C(C=C2)N3CCC(CC3)OC4=C(C=CC(=C4)F)Cl + COc1cc2c(Oc3ccc(NC(=O)C4(C(=O)Nc5ccc(F)cc5)CC4)cc3F)ccnc2cc1OCCCN1CCOCC1 [Foretinib] (partner 0.25 µM)
Summary of the method: as §2

[4] = compound: CC1=NN=C(O1)C2=NN=C(C=C2)N3CCC(CC3)OC4=C(C=CC(=C4)F)Cl + COc1cccc2cc(-c3nc([C@H]4CC[C@H](C(=O)O)CC4)n4ncnc(N)c34)[nH]c12 [OSI-027] (partner 0.5 µM)
Summary of the method: as §2

[5] = compound: CC1=NN=C(O1)C2=NN=C(C=C2)N3CCC(CC3)OC4=C(C=CC(=C4)F)Cl + Cc1cc(Nc2cc(N3CCN(C)CC3)nc(Sc3ccc(NC(=O)C4CC4)cc3)n2)n[nH]1 [Tozasertib] (partner 0.1 µM)
Summary of the method: as §2

[6] = compound: CC1=NN=C(O1)C2=NN=C(C=C2)N3CCC(CC3)OC4=C(C=CC(=C4)F)Cl + Cc1nc(Nc2ncc(C(=O)Nc3c(C)cccc3Cl)s2)cc(N2CCN(CCO)CC2)n1 [Dasatinib] (partner 0.075 µM)
Summary of the method: as §2

[7] = compound: CC1=NN=C(O1)C2=NN=C(C=C2)N3CCC(CC3)OC4=C(C=CC(=C4)F)Cl + N=C(N)NC(=N)NCCc1ccccc1 [Phenformin] (partner 250 µM)
Summary of the method: as §2

NCI-H1623
relative viability (Tosedostat; 0.02 µM): 1.06 | relative viability (Tosedostat; 0.06325 µM): 0.895 | relative viability (Tosedostat; 0.2 µM): 0.907 | relative viability (Tosedostat; 0.6325 µM): 0.798 | relative viability (Tosedostat; 2 µM): 0.965 | relative viability ([1]; 0.253 µM): 0.897 | relative viability ([1]; 0.8 µM): 0.734 | relative viability ([1]; 2.53 µM): 0.918 | relative viability ([1]; 8 µM): 0.926 | relative viability (Tosedostat + Luminespib; first compound 0.02 µM): 0.51 | relative viability (Tosedostat + Luminespib; first compound 0.06325 µM): 0.622 | relative viability (Tosedostat + Luminespib; first compound 0.2 µM): 0.607 | relative viability (Tosedostat + Luminespib; first compound 0.6325 µM): 0.538 | relative viability (Tosedostat + Luminespib; first compound 2 µM): 0.607 | relative viability (Tosedostat + Foretinib; first compound 0.02 µM): 0.825 | relative viability (Tosedostat + Foretinib; first compound 0.06325 µM): 0.905 | relative viability (Tosedostat + Foretinib; first compound 0.2 µM): 0.856 | relative viability (Tosedostat + Foretinib; first compound 0.6325 µM): 0.843 | relative viability (Tosedostat + Foretinib; first compound 2 µM): 0.794 | relative viability (Tosedostat + OSI-027; first compound 0.02 µM): 0.433 | relative viability (Tosedostat + OSI-027; first compound 0.06325 µM): 0.429 | relative viability (Tosedostat + OSI-027; first compound 0.2 µM): 0.456 | relative viability (Tosedostat + OSI-027; first compound 0.6325 µM): 0.462 | relative viability (Tosedostat + OSI-027; first compound 2 µM): 0.453 | relative viability (Tosedostat + Tozasertib; first compound 0.02 µM): 0.41 | relative viability (Tosedostat + Tozasertib; first compound 0.06325 µM): 0.42 | relative viability (Tosedostat + Tozasertib; first compound 0.2 µM): 0.425 | relative viability (Tosedostat + Tozasertib; first compound 0.6325 µM): 0.387 | relative viability (Tosedostat + Tozasertib; first compound 2 µM): 0.42 | relative viability (Tosedostat + Dasatinib; first compound 0.02 µM): 0.585 | relative viability (Tosedostat + Dasatinib; first compound 0.06325 µM): 0.542 | relative viability (Tosedostat + Dasatinib; first compound 0.2 µM): 0.607 | relative viability (Tosedostat + Dasatinib; first compound 0.6325 µM): 0.552 | relative viability (Tosedostat + Dasatinib; first compound 2 µM): 0.601 | relative viability (Tosedostat + Phenformin; first compound 0.02 µM): 0.558 | relative viability (Tosedostat + Phenformin; first compound 0.06325 µM): 0.609 | relative viability (Tosedostat + Phenformin; first compound 0.2 µM): 0.622 | relative viability (Tosedostat + Phenformin; first compound 0.6325 µM): 0.519 | relative viability (Tosedostat + Phenformin; first compound 2 µM): 0.618 | relative viability ([2]; first compound 0.253 µM): 0.465 | relative viability ([2]; first compound 0.8 µM): 0.52 | relative viability ([2]; first compound 2.53 µM): 0.486 | relative viability ([2]; first compound 8 µM): 0.433 | relative viability ([3]; first compound 0.253 µM): 0.717 | relative viability ([3]; first compound 0.8 µM): 0.669 | relative viability ([3]; first compound 2.53 µM): 0.771 | relative viability ([3]; first compound 8 µM): 0.781 | relative viability ([4]; first compound 0.253 µM): 0.36 | relative viability ([4]; first compound 0.8 µM): 0.457 | relative viability ([4]; first compound 2.53 µM): 0.392 | relative viability ([4]; first compound 8 µM): 0.429 | relative viability ([5]; first compound 0.253 µM): 0.322 | relative viability ([5]; first compound 0.8 µM): 0.435 | relative viability ([5]; first compound 2.53 µM): 0.372 | relative viability ([5]; first compound 8 µM): 0.385 | relative viability ([6]; first compound 0.253 µM): 0.522 | relative viability ([6]; first compound 0.8 µM): 0.492 | relative viability ([6]; first compound 2.53 µM): 0.498 | relative viability ([6]; first compound 8 µM): 0.441 | relative viability ([7]; first compound 0.253 µM): 0.568 | relative viability ([7]; first compound 0.8 µM): 0.545 | relative viability ([7]; first compound 2.53 µM): 0.627 | relative viability ([7]; first compound 8 µM): 0.574
